Laboratory results taken from patent US8648076B2, “Cysteine protease inhibitors and their therapeutic applications” (Hybrigenics SA, priority 2005, dated 2014).
pIC50: −log10 of the molar value. Read-outs that look alike come from different tables or passages of the source.

Columns and labels:
Caspase 3 = target: T1, Caspase 3 (Homo sapiens, UniProt P42574); assay: Caspase 3 activity assay; format: biochemical
T1 sequence (P42574 29-175 limits assumed): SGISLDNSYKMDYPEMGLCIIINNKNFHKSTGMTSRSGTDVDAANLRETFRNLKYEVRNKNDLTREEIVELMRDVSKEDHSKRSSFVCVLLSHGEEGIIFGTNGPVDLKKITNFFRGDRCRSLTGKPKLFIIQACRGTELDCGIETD
T1 sequence (P42574 176-277 limits assumed): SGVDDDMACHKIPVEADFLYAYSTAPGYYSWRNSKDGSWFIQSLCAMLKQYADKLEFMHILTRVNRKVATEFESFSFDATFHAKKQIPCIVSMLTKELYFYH
Method: Compounds stocks (100 mM) were stored at −20° C. in DMSO. […] Reactions were performed as duplicates in Black LJL 96 well plates (HE microplates; Molecular Devices; 20 μl final reaction volume). The substrate concentration for caspase 3 specificity assay was 500 nM (Ac-DEVD-AMC; Promega). […] The concentrations were determined in order to perform specificity assays under initial velocities at fixed substrate concentration. Compounds were pre-incubated with enzymes for 30 minutes at 25° C. Reactions were initiated by addition of substrate to the plates containing the enzymes (+/−compounds) diluted in assay buffer. Reactions were incubated for 60 minutes at 37° C. Reactions were stopped by adding acetic acid (100 mM final). Readings were performed on a Pherastar Fluorescent Reader (BMG). δ Emission 380 nm; δ Excitation=460 nm. Data (mean values+/− standard deviation) were analyzed as % of control (no compound) and plotted as percentage versus the Log of the compound concentration using GraphPad (Prism). Data were fitted to a sigmoidal model (variable slope).

USP8 = target: T2, USP8 (Homo sapiens, UniProt P40818); assay: USP8 activity assay; format: biochemical; settings: 400 nM Ub-AMC, pH8.8, 30 min pre-incubation at 25° C., 60 min at 37° C.; sigmoidal fit; AF: Autofluorescent; read-out: USP 8 (inhibition of cysteine protease activity)
T2 sequence (P40818 1-1118): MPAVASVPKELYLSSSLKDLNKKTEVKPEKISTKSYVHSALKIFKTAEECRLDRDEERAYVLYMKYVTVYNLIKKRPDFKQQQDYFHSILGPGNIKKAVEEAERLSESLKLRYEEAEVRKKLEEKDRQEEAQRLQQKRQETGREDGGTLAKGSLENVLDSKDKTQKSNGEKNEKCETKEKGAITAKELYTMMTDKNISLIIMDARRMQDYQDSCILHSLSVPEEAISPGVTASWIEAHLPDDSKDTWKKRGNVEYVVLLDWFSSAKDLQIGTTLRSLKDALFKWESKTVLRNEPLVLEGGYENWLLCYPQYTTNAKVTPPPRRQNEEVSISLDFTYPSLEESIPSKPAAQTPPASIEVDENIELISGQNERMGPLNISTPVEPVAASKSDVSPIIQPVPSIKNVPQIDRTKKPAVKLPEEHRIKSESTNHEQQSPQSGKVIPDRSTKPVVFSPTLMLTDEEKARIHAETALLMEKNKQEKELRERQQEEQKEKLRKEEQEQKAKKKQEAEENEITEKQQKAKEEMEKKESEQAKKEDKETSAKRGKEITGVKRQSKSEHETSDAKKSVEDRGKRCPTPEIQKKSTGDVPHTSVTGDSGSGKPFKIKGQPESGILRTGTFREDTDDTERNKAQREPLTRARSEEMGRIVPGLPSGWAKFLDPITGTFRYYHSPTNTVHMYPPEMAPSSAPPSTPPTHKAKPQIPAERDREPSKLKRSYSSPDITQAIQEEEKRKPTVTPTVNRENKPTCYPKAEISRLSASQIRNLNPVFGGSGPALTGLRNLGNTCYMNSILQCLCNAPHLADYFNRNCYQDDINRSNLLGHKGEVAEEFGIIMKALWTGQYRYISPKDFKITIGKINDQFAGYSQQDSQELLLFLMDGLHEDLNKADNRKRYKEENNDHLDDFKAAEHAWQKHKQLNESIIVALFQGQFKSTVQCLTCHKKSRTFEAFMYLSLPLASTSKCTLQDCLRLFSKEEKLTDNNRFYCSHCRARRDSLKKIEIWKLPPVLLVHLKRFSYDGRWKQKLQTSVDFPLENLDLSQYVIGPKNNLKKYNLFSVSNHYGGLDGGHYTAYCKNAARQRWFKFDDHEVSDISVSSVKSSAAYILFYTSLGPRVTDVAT

[1] = 500 nM Ac-DEVD-AMC, 3.2 nM enzyme, 30 min pre-incubation at 25° C., 60 min at 37° C., sigmoidal fit, AF: Autofluorescent, read-out: Casp3 (inhibition of cysteine protease activity)

SMILES	pIC50 (Caspase 3; [1])	pIC50 (USP8)	pIC50 (Caspase 3)
N#CNc1nc2c(nc1C#N)C(=O)c1ccccc1-2 [Example 21, 2-cyano-9-oxo-9H-indeno[1,2-b]pyrazin-3-yl-cyanamide]	< 4.00	< 4.00	
CCSc1nc2c(nc1C#N)C(=O)c1ccccc1-2 [Example 23, 3-ethylsulfanyl-9-oxo-9H-indeno[1,2-b]pyrazine-2-carbonitrile]	< 4.00	4.34	
N#Cc1nc2c(nc1C#N)-c1ccccc1C2=NOCCOc1ccccc1 [Example 27a, 9-(2-Phenoxy-ethoxyimino)-9H-indeno[1,2-b]pyrazine-2,3-dicarbonitrile]	< 4.00	5.64	
N#Cc1nc2c(nc1C#N)-c1ccc(Cl)cc1C2=NOCCOc1ccccc1 [Example 27b, 7-Chloro-9-(2-phenoxy-ethoxyimino)-9H-indeno[1,2-b]pyrazine-2,3-dicarbonitrile]	< 4.00	4.95	
C=CCON=C1c2ccc(Cl)cc2-c2nc(C#N)c(C#N)nc21 [Example 27c, 9-Allyloxyimino-6-chloro-9H-indeno[1,2-b]pyrazine-2,3-dicarbonitrile]	5.55	6.70	
Cc1c(F)ccc2c1C(=O)c1nc(C#N)c(C#N)nc1-2 [Example 30, 7-Fluoro-8-methyl-9-oxo-9H-indeno[1,2-b]pyrazine-2,3-dicarbonitrile]	5.97	6.50	
N#Cc1nc2c(nc1C#N)-c1cc(Cl)c(Cl)cc1C2=O [Example 31, 6,7-dichloro-9-oxo-9H-indeno[1,2-b]pyrazine-2,3-dicarbonitrile]	6.80	7.12	
CCc1ccc2c(c1)-c1nc(C#N)c(C#N)nc1C2=O [Example 32, 6-ethyl-9-oxo-9H-indeno[1,2-b]pyrazine-2,3-dicarbonitrile]	5.44	6.95	
C=CCON=C1c2ccccc2-c2nc(C(N)=O)c(C#N)nc21 [Example 34a, 9-Allyloxyimino-2-cyano-9H-indeno[1,2-b]pyrazine-3-carboxylic acid amide]	6.61	7.24	
CCON=C1c2ccccc2-c2nc(C(N)=O)c(C#N)nc21 [Example 34b, 2-Cyano-9-ethoxyimino-9H-indeno[1,2-b]pyrazine-3-carboxylic acid amide]	6.20	7.20	
COCCON=C1c2ccccc2-c2nc(C(N)=O)c(C#N)nc21 [Example 34c, 2-Cyano-9-(2-methoxy-ethoxyimino)-9H-indeno[1,2-b]pyrazine-3-carboxylic acid amide]	5.91	7.15	
CON=C1c2ccccc2-c2nc(C(N)=O)c(C#N)nc21 [Example 34d, 2-Cyano-9-methoxyimino-9H-indeno[1,2-b]pyrazine-3-carboxylic acid amide]	6.88	7.54	
N#Cc1nc2c(nc1C(N)=O)-c1ccccc1C2=O [Example 36, 2-cyano-9-oxo-9H-indeno[1,2-b]pyrazine-3-carboxylic acid amide]	6.40	6.69	
CCOC(=O)CO/N=C1\c2ccccc2-c2nc(C(N)=O)c(C#N)nc21 [Example 37, (3-carbamoyl-2-cyano-indeno[1,2-b]pyrazin-9-ylideneaminooxy)-acetic acid ethyl ester]	5.94	6.70	
N#Cc1nc2c(nc1C(N)=O)-c1ccccc1/C2=N\OCC(=O)O [Example 38, (3-carbamoyl-2-cyano-indeno[1,2-b]pyrazin-9-ylideneaminooxy)-acetic acid]		6.57	5.40
CCOC(=O)CNC(=O)CO/N=C1\c2ccccc2-c2nc(C(N)=O)c(C#N)nc21 [Example 40, [2-(3-carbamoyl-2-cyano-indeno[1,2-b]pyrazin-9-ylideneaminooxy)-acetylamino]-acetic acid ethyl ester]	6.07	6.81	
N#Cc1nc2c(nc1C(N)=O)-c1ccccc1/C2=N\OCC(=O)NCC(=O)O [Example 41, [2-(3-carbamoyl-2-cyano-indeno[1,2-b]pyrazin-9-ylideneaminooxy)-acetylamino]-acetic acid]	5.70	6.93	
N#Cc1nc2c(nc1O)-c1ccc(Cl)cc1C2=O [Example 42, 7-chloro-3-hydroxy-9-oxo-9H-indeno[1,2-b]pyrazine-2-carbonitrile]	< 4.00	< 4.00	
N#Cc1nc2c(nc1C#N)-c1ccc(Cl)cc1C2=NNC(N)=O [Example 43, 9-[(aminocarbonyl)hydrazono]-7-chloro-9H-indeno[1,2-b]pyrazine-2,3-dicarbonitrile]	4.19	6.09	
